# According to patent publication US10159678B2, “Methods to decrease susceptibility to asthmatic bronchoconstriction” (Cornell University, priority 2012, dated 2018):
# Legend:
# [1] = biological target: T1, SPT (Mus musculus, UniProt O35704+P97363); assay: Incorporation of 3H-serine / 3H-sphingosine in lung homogenates after intranasal myriocin; assay type: in vivo, mice
# T1 construct: from tissue
# T1 sequence (P97363 1-560): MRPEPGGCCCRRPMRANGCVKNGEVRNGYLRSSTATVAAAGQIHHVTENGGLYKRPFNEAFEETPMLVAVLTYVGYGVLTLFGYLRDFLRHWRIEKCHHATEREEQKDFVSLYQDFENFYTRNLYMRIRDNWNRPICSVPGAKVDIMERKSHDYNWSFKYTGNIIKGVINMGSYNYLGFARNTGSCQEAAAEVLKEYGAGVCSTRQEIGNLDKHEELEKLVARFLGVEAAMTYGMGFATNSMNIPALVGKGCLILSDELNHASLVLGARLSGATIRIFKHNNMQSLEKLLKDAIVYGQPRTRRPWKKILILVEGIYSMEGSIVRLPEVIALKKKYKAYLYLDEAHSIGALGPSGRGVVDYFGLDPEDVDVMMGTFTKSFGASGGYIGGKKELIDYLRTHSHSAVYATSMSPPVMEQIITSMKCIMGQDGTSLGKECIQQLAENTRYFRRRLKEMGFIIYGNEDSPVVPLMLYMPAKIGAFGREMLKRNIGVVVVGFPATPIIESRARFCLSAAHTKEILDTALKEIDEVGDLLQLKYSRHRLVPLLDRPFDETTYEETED
# T1 sequence (O35704 1-473): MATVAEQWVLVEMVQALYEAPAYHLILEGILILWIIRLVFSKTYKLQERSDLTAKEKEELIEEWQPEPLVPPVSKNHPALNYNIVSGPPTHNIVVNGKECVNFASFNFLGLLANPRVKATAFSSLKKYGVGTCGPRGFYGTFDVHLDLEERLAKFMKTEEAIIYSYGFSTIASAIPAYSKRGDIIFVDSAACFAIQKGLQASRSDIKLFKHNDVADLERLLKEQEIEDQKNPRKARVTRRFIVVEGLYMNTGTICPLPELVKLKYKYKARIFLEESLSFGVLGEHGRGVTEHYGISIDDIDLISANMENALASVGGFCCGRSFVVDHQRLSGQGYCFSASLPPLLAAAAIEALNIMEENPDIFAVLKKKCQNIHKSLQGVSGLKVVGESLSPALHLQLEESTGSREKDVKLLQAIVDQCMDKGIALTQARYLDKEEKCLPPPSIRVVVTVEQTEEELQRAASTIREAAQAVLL
# T1 sequence (Q8R207 1-71 partner): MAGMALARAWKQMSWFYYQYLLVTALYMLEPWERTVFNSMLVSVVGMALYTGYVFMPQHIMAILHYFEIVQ
# Description: Lungs were harvested following perfusion with phosphate-buffered saline (PBS, Invitrogen, Carlsbad, Calif.) containing 0.6 mM ethylenediamine tetra acetic acid dipotassium salt dehydrate (EDTA, Invitrogen) via the right ventricle to remove blood cells from the pulmonary circulation. The lungs were then homogenized in normal PBS. De-novo sphingolipid synthesis was assessed by evaluating incorporation of ^3H-serine (24.1 Ci/mmol, Perkin Elmer (Boston, Mass.) into ceramide and sphingosine. Sphingolipid synthesis through the recycling pathway was assessed by evaluating incorporation of ^3H-sphingosine (18.2 Ci/mmol, Perkin Elmer (Boston, Mass.) into ceramide and sphingomyelin. In both assays, equal amounts of fresh lung homogenates were incubated for 30 min at 37° C. with 2 μl of the radioactive tracer, followed by lyophilization to determine dry weight, lipid extraction with chloroform/methanol/water (1:1:0.9). The organic phase was evaporated, dissolved in 50 μl chloroform/methanol (1:1) spotted on […] chromatography plates (TLC) (Merck Silica gel 60, Darmstadt, Germany) and chromatographed for 25 min with chloroform-methanol-ammonium hydroxide (65:25:4 v/v). […] The TLC plate was cut at the corresponding lipid spot, mixed with scintillation fluid (Ultima Gold, Packard Instrument Company, CT) and analyzed in a scintillation counter (Perkin Elmer Wallac, Gaithersburg, Md.). […]
# [2] = system: BALB/c mice; assay: Lung mechanics and airway reactivity to inhaled methacholine after intranasal myriocin; assay type: in vivo; settings: 3 h after intranasal myriocin (2 or 20 μg)
# Description: Animal studies described herein were conducted under protocols approved by the Institutional Animal Care and Use Committee of Weill Cornell Medical College. Female BALB/c mice, obtained from Taconic Farms (Tarrytown, N.Y.). Animals were housed under specific pathogen-free conditions and used at 6 to 8 weeks of age. Myriocin (Enzo Life Sciences, Plymouth Meeting, Pa.) was freshly prepared from a 10 mM stock solution to a 1 mM or 100 μM solution in 0.9% saline and 0.05% fatty acid free bovine serum albumin and 50 μl were administered intranasally. Control animals received the vehicle solution (1% DMSO in 0.9% saline, 0.5% BSA) or were naïve. […]
# Mice were anaesthetized with pentobarbital (100 mg/kg; American Pharmaceutical Partners, Los Angeles, Calif.), tracheostomized and mechanically ventilated at a rate of 150 breaths/min, a tidal volume of 10 ml/kg and positive end-expiratory pressure of 2-3 cm H2O using a computer-controlled animal ventilator (Sireq, Montreal, Canada). […] Rn and G were also assessed following increasing doses of methacholine (3.125, 12.5 and 50 mg/ml).
# Experiments were then performed to assess if administration of myriocin directly to the respiratory tract affects pulmonary function. […] Airway resistance (Rn) in response to increasing doses of inhaled methacholine was determined 3 h after myriocin administration. […]
# [3] = system: Muc5ac; assay: Mucus production (PAS stain, Muc5ac mRNA) after myriocin; assay type: in vivo; settings: myriocin-treated mice
# Text: Lung sections were stained with periodic acid-Schiff stain (PAS) and analyzed by light microscopy. Expression of MUC5ac (Mm01276735) was quantified by TaqMan RealTime RT-PCR as described above.
# [4] = system: TRPM7; assay: Lung magnesium homeostasis (TRPM6/TRPM7 mRNA, total lung magnesium) after myriocin; assay type: in vivo, mice
# Text: It is proportional to the magnesium concentration.
structure (smiles),measurement,setting,value
CCCCCCC(=O)CCCCCC/C=C/C[C@@H](O)[C@H](O)[C@@](N)(CO)C(=O)O [myriocin],SPT-dependent synthesis of sphinganine from 3H-serine,[1]; 3 hours following intranasal administration of myriocin,significantly decreased
same,Non-SPT-dependent syntheses of ceramides or sphingomyelins from 3H-sphingosine,"[1]; after myriocin administration, data not shown",not affected
same,airway reactivity (airway resistance Rn in response to inhaled methacholine),[2]; FIG. 3A,increased
same,"Baseline lung mechanical properties, such as static compliance",[2]; FIG. 3B,not altered
same,mucus-producing cells on PAS-stained lung sections,[3],No differences
same,Expression of Muc5ac in the lungs,[3]; FIG. 4K,unchanged
same,expression of TRPM6,[4]; data not shown,not altered
same,expression of TRPM7 in the lungs,"[4]; mice that had received myriocin, FIG. 5A",increased
same,lung magnesium levels,"[4]; myriocin-treated (20 μg) mice, FIG. 5B",reduced
